Our source for the EC50 values is US20230406843A1, “Progranulin Modulators and Methods of Using the Same” (ARKUDA THERAPEUTICS, priority 2020, published 2023).

SMILES strings stand for the structures. Some results are limits rather than exact numbers.

In one assay the test system is progranulin. In words: Progranulin induction cellular assay (ELISA of secreted mouse PGRN). Format: cell-based. The conditions noted are these: Mus musculus, BV-2, read-out: EC50 μM. The procedure: Cellular Assays: Progranulin induction assay. To measure the efficacy of compounds, a progranulin induction cellular assay in mouse primary microglia (pMG), primary cortical neurons, and BV-2 cell lines is used. BV-2 cells are split the day before plating into a 96 well plate format at approximately 80%. Cells should be plated the day before and allowed for 1 hour attachment period and for 16 hour incubation. Levels of progranulin secreted into the cell culture medium or retained in the cell lysate can be quantified using an ELISA-based readout and measurement of secreted mouse PGRN in the medium was assessed by the methodology published by Ghidoni et al. 2012. Standard ELISA kits to measure PGRN are available from vendors such as Adipogen, R&D, and Biovendor.
Table B below presents the results of a progranulin induction assay as described above.
As to `CC(=O)N[C@@H]1CO[C@@H](C(=O)N2CCc3ccccc3[C@@H]2c2ccc(F)cc2)C[C@@H]1N` [Compound 5427, N-((3S,4S,6R)-4-amino-6-((S)-1-(4-fluorophenyl)-1,2,3,4-tetrahydroisoquinoline-2-carbonyl)tetrahydro-2H-pyran-3-yl)acetamide], the EC50 is 0.096 µM. Take `COC[C@]1(N)CC[C@@H](C(=O)N2CCc3ccccc3[C@@H]2c2ccc(F)cc2)OC1` [Compound 5218, ((2S,5R)-5-amino-5-(methoxymethyl)tetrahydro-2H-pyran-2-yl)((S)-1-(4-fluorophenyl)-3,4-dihydroisoquinolin-2(1H)-yl)methanone]: the EC50 is 0.12 µM.

The assay is the same for the next values; noted with them: progranulin induction assay; mouse pMG, primary cortical neurons and BV-2 cell lines named, cell type not given; ELISA-based readout; read-out: EC50.
Regarding `N[C@H]1C[C@H](C(=O)N2CCc3ccccc3[C@@H]2c2ccc(F)cc2)OC[C@@H]1OC1CCC1` [Compound 5525, ((2R,4S,5R)-4-amino-5-cyclobutoxytetrahydro-2H-pyran-2-yl)((S)-1-(4-fluorophenyl)-3,4-dihydroisoquinolin-2(1H)-yl)methanone], the EC50 is 0.0003 µM.

As to `O=C([C@H]1C[C@@H]2NC=N[C@@H]2CO1)N1CCc2ccccc2[C@@H]1c1ccc(F)cc1` [Compound 5430, ((S)-1-(4-fluorophenyl)-3,4-dihydroisoquinolin-2(1H)-yl)((3aS,6R,7aS)-1,3a,4,6,7,7a-hexahydropyrano[3,4-d]imidazol-6-yl)methanone], the EC50 is above 0.3 µM. Regarding `CCCN[C@H]1C[C@H](C(=O)N2CCc3ccccc3[C@@H]2c2ccc(F)cc2)OC[C@@H]1OC` [Compound 5579], the EC50 worked out at 0.05 µM.

For the compound `CC(C)[C@@H]1CN[C@H]2C[C@H](C(=O)N3CCc4ccccc4[C@@H]3c3ccc(F)cc3)OC[C@@H]2O1` [Compound 5567], the EC50 was 0.07 µM. Take `O=C([C@@H]1C[C@@](O)(CNCCO)CO1)N1CCc2ccccc2[C@@H]1c1ccc(F)cc1` (single isomer, unassigned) [Compound 5038]: the EC50 came to 0.5 µM.

Consider `CC(C)O[C@H]1CO[C@@H](C(=O)N2CCc3ccccc3[C@@H]2c2ccc(F)cc2)C[C@@H]1N` [Compound 5267, ((2R,4S,5R)-4-amino-5-isopropoxytetrahydro-2H-pyran-2-yl)((S)-1-(4-fluorophenyl)-3,4-dihydroisoquinolin-2(1H)-yl)methanone], for which the EC50 amounted to 0.0001 µM. As to `N[C@H]1CCO[C@H](C(=O)N2CCc3ccccc3[C@@H]2c2ccc(F)cc2)C1` (single isomer, unassigned) [Compound 5027], the EC50 turned out to be 0.488 µM.

For the compound `O=C([C@@H]1CCNCCO1)N1CCc2ccccc2[C@@H]1c1ccc(F)cc1` (single isomer, unassigned) [Compound 5045], the EC50 worked out at 0.078 µM. For `N[C@H]1C[C@H](C(=O)N2CCc3ccccc3[C@@H]2c2ccc(F)cc2)OC[C@H]1OC(F)F` [Compound 5443, ((2R,4S,5S)-4-amino-5-(difluoromethoxy)tetrahydro-2H-pyran-2-yl)((S)-1-(4-fluorophenyl)-3,4-dihydroisoquinolin-2(1H)-yl)methanone], the half-maximal effective concentration (EC50) turned out to be 0.151 µM. Take `CC(=O)N(C)[C@H]1CO[C@@H](C(=O)N2CCc3ccccc3[C@@H]2c2ccc(F)cc2)C[C@@H]1N` [Compound 5516, N-((3R,4S,6R)-4-amino-6-((S)-1-(4-fluorophenyl)-1,2,3,4-tetrahydroisoquinoline-2-carbonyl)tetrahydro-2H-pyran-3-yl)-N-methylacetamide]: the EC50 came to 0.007 µM. With `CN[C@H]1C[C@H](C(=O)N2CCc3ccccc3[C@@H]2c2ccc(F)cc2)OC[C@@H]1OC` [Compound 5503, ((S)-1-(4-fluorophenyl)-3,4-dihydroisoquinolin-2(1H)-yl)((2R,4S,5R)-5-methoxy-4-(methylamino)tetrahydro-2H-pyran-2-yl)methanone], the EC50 was determined as 0.005 µM.

With `CCS[C@H]1CO[C@@H](C(=O)N2CCc3ccccc3[C@@H]2c2ccc(F)cc2)C[C@@H]1N` [Compound 5521, ((2R,4S,5R)-4-amino-5-(ethylthio)tetrahydro-2H-pyran-2-yl)((S)-1-(4-fluorophenyl)-3,4-dihydroisoquinolin-2(1H)-yl)methanone], the EC50 stood at 0.008 µM. Consider `N[C@H]1CC[C@H](C(=O)N2CCc3ccccc3[C@@H]2c2ccc(F)cc2F)OC1` [Compound 5255], for which the EC50 worked out at 0.03 µM. On to `CS(=O)(=O)[C@H]1CO[C@@H](C(=O)N2CCc3ccccc3[C@@H]2c2ccc(F)cc2)C[C@@H]1N` [Compound 5523, ((2R,4S,5R)-4-amino-5-(methylsulfonyl)tetrahydro-2H-pyran-2-yl)((S)-1-(4-fluorophenyl)-3,4-dihydroisoquinolin-2(1H)-yl)methanone], for which the EC50 was 0.016 µM. Consider `CCN[C@H]1CO[C@@H](C(=O)N2CCc3ccccc3[C@@H]2c2ccc(F)cc2)OC1` [Compound 5050, (cis-5-(ethylamino)-1,3-dioxan-2-yl)((S)-1-(4-fluorophenyl)-3,4-dihydroisoquinolin-2(1H)-yl)methanone], for which the EC50 is 0.35 µM. For the compound `C[C@@]1(C(=O)N2CCc3ccccc3[C@@H]2c2ccc(F)cc2)CCNCCO1` [Compound 5240], the EC50 amounted to 0.631 µM.

For `CCO[C@H]1CO[C@@H](C(=O)N2CCc3ccccc3[C@@H]2c2ccc(F)cc2)C[C@@H]1N` [Compound 5078, ((2R,4S,5R)-4-amino-5-ethoxytetrahydro-2H-pyran-2-yl)((S)-1-(4-fluorophenyl)-3,4-dihydroisoquinolin-2(1H)-yl)methanone], the concentration giving a half-maximal response (EC50) amounted to 0.001 µM. In the case of `N[C@H]1CCO[C@@H](C(=O)N2CCc3ccccc3[C@@H]2c2ccc(F)cc2)C1` (single isomer, unassigned) [Compound 5080], the EC50 amounted to 0.166 µM.

On to `N[C@@]1(CO)CO[C@@H](C(=O)N2CCc3ccccc3[C@@H]2c2ccc(F)cc2)C1` (single isomer, unassigned) [Compound 5071], for which the EC50 was found to be 0.252 µM.

With `O=C([C@H]1C[C@@H]2NCCS[C@H]2CO1)N1CCc2ccccc2[C@@H]1c1ccc(F)cc1` (single isomer, unassigned) [Compound 5534], the EC50 came to 0.015 µM.

`CCO[C@H]1CO[C@@H](C(=O)N2CCc3ccccc3[C@@H]2c2ccc(F)cc2)C[C@H]1N` [Compound 5248, ((2R,4R,5R)-4-amino-5-ethoxytetrahydro-2H-pyran-2-yl)((S)-1-(4-fluorophenyl)-3,4-dihydroisoquinolin-2(1H)-yl)methanone]: the EC50 came to 0.032 µM. Turning to `O=C([C@H]1CCNCCO1)N1CCc2ccccc2[C@@H]1c1ccc(F)cc1` (single isomer, unassigned) [Compound 5044], the EC50 is 0.163 µM.

Turning to `N[C@H]1C[C@@H](C(=O)N2CCc3ccccc3[C@@H]2c2ccc(F)cc2)OC[C@H]1O` [Compound 5058, ((2S,4S,5S)-4-amino-5-hydroxytetrahydro-2H-pyran-2-yl)((S)-1-(4-fluorophenyl)-3,4-dihydroisoquinolin-2(1H)-yl)methanone], the EC50 was determined as 0.29 µM. As for `CCN1C(=O)CN[C@H]2C[C@H](C(=O)N3CCc4ccccc4[C@@H]3c3ccc(F)cc3)OC[C@@H]21` [Compound 5536, (4aR,7R,8aS)-4-ethyl-7-((S)-1-(4-fluorophenyl)-1,2,3,4-tetrahydroisoquinoline-2-carbonyl)hexahydro-2H-pyrano[3,4-b]pyrazin-3(4H)-one], the EC50 was 0.15 µM.

In the case of `N[C@H]1C[C@H](C(=O)N2CCc3ccccc3[C@@H]2c2ccc(F)cc2)OC[C@H]1CO` [Compound 5538, ((2R,4S,5R)-4-amino-5-(hydroxymethyl)tetrahydro-2H-pyran-2-yl)((S)-1-(4-fluorophenyl)-3,4-dihydroisoquinolin-2(1H)-yl)methanone], the EC50 is 0.064 µM. On to `O=C([C@H]1C[C@@](O)(CNCCO)CO1)N1CCc2ccccc2[C@@H]1c1ccc(F)cc1` (single isomer, unassigned) [Compound 5040], for which the EC50 was 0.173 µM. Turning to `N[C@H]1C[C@H](C(=O)N2CCc3ccccc3[C@@H]2c2ccc(F)cc2)OC[C@@H]1OCC(F)(F)F` [Compound 5475, ((2R,4S,5R)-4-amino-5-(2,2,2-trifluoroethoxy)tetrahydro-2H-pyran-2-yl)((S)-1-(4-fluorophenyl)-3,4-dihydroisoquinolin-2(1H)-yl)methanone], the EC50 is 0.001 µM.

Take `CO[C@H]1CO[C@@H](C(=O)N2CCc3ccccc3[C@@H]2c2ccc(F)cc2)C[C@@H]1N(C)C` [Compound 5575, ((2R,4S,5R)-4-(dimethylamino)-5-methoxytetrahydro-2H-pyran-2-yl)((S)-1-(4-fluorophenyl)-3,4-dihydroisoquinolin-2(1H)-yl)methanone]: the EC50 came out at 0.028 µM.

With `N[C@H]1CO[C@H](C(=O)N2CCc3ccccc3[C@@H]2c2ccc(F)cc2)C[C@@H]1O` [Compound 5056, ((2S,4S,5S)-5-amino-4-hydroxytetrahydro-2H-pyran-2-yl)((S)-1-(4-fluorophenyl)-3,4-dihydroisoquinolin-2(1H)-yl)methanone], the EC50 was determined as 0.127 µM. Consider `N[C@@]1(CO)CC[C@H](C(=O)N2CCc3ccccc3[C@@H]2c2ccc(F)cc2)OC1` [Compound 5215, ((2R,5R)-5-amino-5-(hydroxymethyl)tetrahydro-2H-pyran-2-yl)((S)-1-(4-fluorophenyl)-3,4-dihydroisoquinolin-2(1H)-yl)methanone], for which the EC50 was found to be 0.14 µM. Same read-out and setting: under `CS(=O)(=O)[C@@H]1CO[C@@H](C(=O)N2CCc3ccccc3[C@@H]2c2ccc(F)cc2)C[C@@H]1N` [Compound 5426, ((2R,4S,5S)-4-amino-5-(methylsulfonyl)tetrahydro-2H-pyran-2-yl)((S)-1-(4-fluorophenyl)-3,4-dihydroisoquinolin-2(1H)-yl)methanone] stands 0.441 µM.
